The experiment has as its target T1, human Apo(a) protein (Homo sapiens, UniProt P08519).
T1 sequence (P08519 1053-1693 limits assumed): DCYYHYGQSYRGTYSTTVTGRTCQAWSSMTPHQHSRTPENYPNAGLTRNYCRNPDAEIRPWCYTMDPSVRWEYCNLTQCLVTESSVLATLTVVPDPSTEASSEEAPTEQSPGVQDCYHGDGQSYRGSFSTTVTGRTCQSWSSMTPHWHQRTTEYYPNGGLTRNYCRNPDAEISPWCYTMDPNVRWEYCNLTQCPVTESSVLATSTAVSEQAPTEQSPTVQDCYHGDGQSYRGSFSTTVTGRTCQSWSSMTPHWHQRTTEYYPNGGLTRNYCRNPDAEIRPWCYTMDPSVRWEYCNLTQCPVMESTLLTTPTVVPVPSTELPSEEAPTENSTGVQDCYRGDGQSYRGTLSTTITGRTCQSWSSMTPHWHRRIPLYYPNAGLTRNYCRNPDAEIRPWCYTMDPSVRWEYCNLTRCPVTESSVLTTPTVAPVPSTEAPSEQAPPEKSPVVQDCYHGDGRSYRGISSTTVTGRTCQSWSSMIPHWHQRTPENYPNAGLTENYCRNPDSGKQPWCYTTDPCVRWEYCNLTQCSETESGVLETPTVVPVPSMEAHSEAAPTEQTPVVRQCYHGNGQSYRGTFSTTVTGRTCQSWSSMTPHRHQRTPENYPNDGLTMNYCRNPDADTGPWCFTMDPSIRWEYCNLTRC
Description: In vitro Apo(a) binding assay (competitive SPA radioligand binding). Particulars: competitive binding vs tritium-labeled radioligand 0.52 nM; human Apo(a) containing 17 Kringle repeats; 60 min at RT. How it is done: The in vitro binding affinity of compounds to the intended target human Apo(a) protein were tested in a competitive binding assay. Human Apo(a) protein containing 17 Kringle repeats was affinity purified from conditioned media of transiently transfected HEK-293F cells. All reagents were prepared in assay buffer containing 50 mM Tris-HCl pH 7.4, 0.1% BSA. The binding assay was conducted by adding to each well of a clear-bottom plate 50 μL each of (1) test compound in dilution series (final concentration 0.32˜10000 nM), (2) Apo(a) protein (6 ng/well), (3) re-suspended Wheat Germ Agglutinin Polyvinyltoluene SPA beads (20 mg/mL), and (4) the radioligand, tritium-labeled (2S)-3-[3-[2-oxo-3-[3-(tritritiomethoxy)phenyl]imidazolidin-1-yl]phenyl]-2-[(3R)-pyrrolidin-3-yl]propanoic acid hydrochloride (prepared essentially as described in WO 2020/247429; final concentration 0.52 nM). Plates were incubated for 60 min at RT and counted on TRILUX LSC. Non-specific binding, defined as binding in the presence of […] cold (i.e. non-radiolabeled) ligand: (2S)-3-[3-[2-oxo-3-[3-(methoxy)phenyl]imidazolidin-1-yl]phenyl]-2-[(3R)-pyrrolidin-3-yl]propanoic acid hydrochloride (prepared essentially as described in WO 2020/247429) was subtracted to determine specific binding. Data were analyzed by fitting to a standard single site binding model and the IC50 for the Example test compound was determined. […]

Counter-ions that a name gives are not always drawn.

By IC50 is commonly meant the concentration that inhibits the measured activity by half. A higher IC50 goes with a need for much substance.

For the molecule `COc1cc(F)cc(CNc2cccc(C[C@H](C(=O)O)[C@H]3CCNC3)c2)c1` [Example 6, (2S)-3-[3-[[(3-Fluoro-5-methoxy-phenyl)methyl]amino]phenyl]-2-[(3R)-pyrrolidin-3-yl]propanoic acid;hydrochloride], the concentration for half-maximal inhibition (IC50) was 4.68 nM.
